In assay [1] the test system is rat model of cardiac arrest and cardiopulmonary resuscitation. Kind of assay: Coronary perfusion pressure, defibrillations and arrhythmia in a rat model of cardiac arrest and CPR. The assay is classed as in vivo, Sprague-Dawley rats. Particulars: mean±SD. As for the experimental part: (§1) Male Sprague-Dawley rats weighing 450-550 g were utilized in this study. After induction of anesthesia with inhalation of CO2 for about 30 seconds, the animals were anesthetized by intraperitoneal injection of pentobarbital (45 mg/kg). Additional doses (10 mg/kg) were administered when required to maintain anesthesia. After no response to stimuli, the animals were shaved. The trachea was orally intubated with a 14-G cannula mounted on a blunt needle (Abbocath-T; Abbott Hospital Products Division, North Chicago, IL, USA) with a 145-degree angled tip. End-tidal CO2 was continuously monitored with a side-stream infrared CO2 analyzer (Capstar-100 Carbon Dioxide Analyzer; CWE, Ardmore, PA) interposed between the tracheal cannula and the ventilator. A conventional lead II EKG was continuously monitored. Through the left external jugular vein, a PE-50 catheter (Becton Dickinson, Sparks, MD, USA) was advanced into the right atrium for measurement of right atrial pressures. A 3-F catheter (Model C-PMS-301J; Cook Critical Care, Bloomington, IN, USA) was advanced through the right external jugular vein into the right ventricle. For blood pressure measurements within the descending aorta and PEG-20k administration, PE-50 catheters were advanced into the descending aorta from the left femoral artery and the right femoral artery respectively. […]

The test system is the same in assay [2]. Kind of assay: Post-resuscitation myocardial function by echocardiography (CO, EF, MPI). The assay is classed as in vivo, Sprague-Dawley rats. Particulars: 2, 4, and 6 hours after ROSC; PEG-20k vs other 3 groups, epinephrine vs saline placebo and saline-A; p<0.05; FIG. 2. As for the experimental part:
as §1

The test system is the same in assay [3]. Put plainly: Buccal microcirculation (MFI, PVD) by side-stream dark-field imaging. The assay is classed as in vivo, Sprague-Dawley rats. Particulars: 1, 3, and 5 hours after ROSC; PEG-20k vs other 3 groups; p<0.05; FIG. 3. As for the experimental part: as §1
Assay [4] shares this test system. Kind of assay: Duration of survival after resuscitation. The assay is classed as in vivo, Sprague-Dawley rats. To be noted: 6 resuscitated rats in each group.
The test system of assay [5] is patients with out-of-hospital cardiac arrest. To be noted: prehospital epinephrine use; cited from earlier work.
In assay [6] the test system is patients with SCA. Particulars: cited from earlier work.

Consider `CNC[C@H](O)c1ccc(O)c(O)c1` [Epinephrine], for which the Arrhythmia duration in assay [1] (after resuscitation) is reported as 14.00 ± 5.35. The compound further returned a Number of defibrillations in assay [1] (defibrillations required for conversion to viable rhythm and ROSC, drug infused for 3 minutes after 4 minutes of precordial compression) of 5.50 ± 2.88. The “PR myocardial function (CO, EF, MPI)” value in assay [2] is recorded as “increased the severity of PR myocardial dysfunction”. Besides, the “Buccal microcirculation PVD and MFI values” in assay [3] was “significantly decreased”. Further, in assay [4], the “Rats survived more than 24 hours” value was “one”. Moreover, in assay [5], the “Chance of ROSC before hospital arrival” value is given as “increased chance of ROSC”; the “Chance of survival and good functional outcomes 1 month after the event” value was “decreased chance of survival and good functional outcomes”. In addition, the “Rate of ROSC vs placebo” value in assay [6] is on record as “significantly higher rate of ROSC than placebo”. Also, the “Rate of survival with a favorable neurologic outcome” value in assay [6] (vs placebo group) was “as low as the rate in the placebo group”.
